# Residue numbers refer to the chain shown, from its start.
# Legend:
# [1] = target: T1, AR H874Y (Homo sapiens, UniProt P10275, H875Y); experiment: Luciferase transcriptional reporter assay, mutant AR, HepG2, antagonist mode; format: cell-based; conditions: HepG2, 90 pM R1881, 48 hours; * denotes incomplete inhibition (otherwise 100%); read-out: Antagonism; IC50, AR construct H874Y
# T1 construct: expressed in transfected cells; host or cells: HepG2
# T1 sequence (P10275 1-920 H875Y): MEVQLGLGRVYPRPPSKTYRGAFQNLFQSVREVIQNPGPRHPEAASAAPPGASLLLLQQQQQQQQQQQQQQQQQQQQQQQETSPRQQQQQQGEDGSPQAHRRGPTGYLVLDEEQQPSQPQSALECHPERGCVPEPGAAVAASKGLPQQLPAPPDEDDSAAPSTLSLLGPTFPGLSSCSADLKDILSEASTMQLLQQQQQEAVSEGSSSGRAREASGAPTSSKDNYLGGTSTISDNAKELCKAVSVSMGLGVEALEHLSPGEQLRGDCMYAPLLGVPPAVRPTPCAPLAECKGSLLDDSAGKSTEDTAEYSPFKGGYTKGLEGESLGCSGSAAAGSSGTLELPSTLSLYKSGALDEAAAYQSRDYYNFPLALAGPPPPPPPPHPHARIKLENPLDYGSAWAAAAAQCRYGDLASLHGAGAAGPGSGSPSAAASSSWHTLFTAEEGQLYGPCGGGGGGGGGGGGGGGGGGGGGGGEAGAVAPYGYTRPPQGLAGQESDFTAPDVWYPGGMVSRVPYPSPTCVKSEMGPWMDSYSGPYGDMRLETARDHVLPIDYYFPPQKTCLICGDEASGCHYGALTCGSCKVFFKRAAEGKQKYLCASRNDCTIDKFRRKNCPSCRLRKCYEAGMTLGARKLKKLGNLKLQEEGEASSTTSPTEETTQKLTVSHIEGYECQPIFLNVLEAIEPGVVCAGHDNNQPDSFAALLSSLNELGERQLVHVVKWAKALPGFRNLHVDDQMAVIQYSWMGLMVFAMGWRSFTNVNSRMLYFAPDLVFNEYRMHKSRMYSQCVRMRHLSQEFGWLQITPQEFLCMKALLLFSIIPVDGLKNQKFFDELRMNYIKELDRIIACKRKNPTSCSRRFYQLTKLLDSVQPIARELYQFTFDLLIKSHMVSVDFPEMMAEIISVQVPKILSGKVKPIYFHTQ
# Experimental: (§1) HepG2 cells were maintained in EMEM supplemented with 10% FBS. One day before transfection, the media was changed to EMEM with 10% CSS. T-150 flasks were transiently transfected using 120 μL Lipofectamine 2000 (Life Technologies), 30 μg mutant cDNA (expression vector)—mutant cDNA tested were L701H, T877A, W741C and H874Y—and 40 μg 4×ARE-Luciferase (reporter vector) in OptiMEM and the flasks were incubated overnight. Cells were then trypsinized, counted and resuspended at 500,000 cells/mL. For agonist mode, the compounds of Formula (I) are serially diluted and 50 μL of the compound added per well. 50 μL of the cells are added to each well and incubated for 48 hours. For antagonist mode, a final concentration of 90 pM R1881 was added to the diluted compounds and incubated for 48 hours. The plates were then assayed using SteadyGlo and read on the Envision. Percent Stimulation and Inhibition is determined and analyzed using GraphPad Prism.
# (§2) All values are calculated relative to the activity of R1881 induced androgen receptor activity (n≧3).
# [2] = target: T2, AR W741C (Homo sapiens, UniProt P10275, W742C); experiment: as above; format: cell-based; conditions: HepG2, 90 pM R1881, 48 hours; * denotes incomplete inhibition (otherwise 100%); read-out: Antagonism; IC50, AR construct W741C
# T2 construct: expressed in transfected cells; host or cells: HepG2
# T2 sequence (P10275 1-920 W742C): T1 sequence (P10275 1-920 H875Y) with W742C, Y875H
# Experimental: as §1, §2
compound,measurement,setting,value
"N#Cc1ncc(N2C(=O)C3(CCC3)N(c3ccc(OC4CCNCC4)cc3)C2=S)cc1C(F)(F)F [Cpd 35, 5-[5-oxo-8-[4-(4-piperidyloxy)phenyl]-7-thioxo-6,8-diazaspiro[3.4]octan-6-yl]-3-(trifluoromethyl)pyridine-2-carbonitrile]",IC50,[1],1.95 µM
same,IC50,[2],5.79 µM

# Reference: patent US20180008587A1, “THIOHYDANTOIN ANDROGEN RECEPTOR ANTAGONISTS FOR THE TREATMENT OF CANCER” (Jaressen Pharmaceutica NV, priority 2016, published 2018)
